According to patent US8901317B2, “Tryptamine derivatives, their preparation and their use in gastropathy” (Council of Scientific & Industrial Research, priority 2010, dated 2014):

Legend:
[1] = system: gastric mucosal primary cultured cells; experiment: Mitochondrial dehydrogenase activity (MTT reduction assay); assay type: cell-based, rat
Method: Mitochondrial metabolic function was studied by observing the ability of mitochondrial dehydrogenases to reduce MTT ([3-(4,5-dimethylthiazol-2-yl)-2,5-diphenyl tetrazolium bromide]) into formazan dye (Pal, C; et al. Free Radic Biol Med, 49(2), 258-267; 2010). Equal number of gastric mucosal primary cultured cells were taken (10^6) in each well of a 12 well plate and were divided into three groups control, indomethacin treated (5 mM) and SEGA (50 μM) plus indomethacin (5 mM)-treated. After incubating for 16 hrs, cells were dissociated and centrifuged at 500×g for 5 min and the supernatant was then discarded. Cell pellet was reconstituted in fresh cell culture media. Equal number of cells (10^5 cells) in a final volume of 100 μl cell culture media from each group was then taken in 96 well plates in triplicates. MTT (0.1% final concentration) solution was added to each well of both control and experimental groups, mixed well and incubated for 3 hrs at 37° C. in a CO2 incubator. After the incubation, the culture medium was aspirated carefully and the insoluble formazan crystals at the bottom of the well were solubilized with 100 μl of MTT solubilization solution containing 10% Triton X-100 plus 0.1 N HCl in anhydrous isopropanol. The MTT reduction (absorbance of formazan dye) was measured at 570 nm.

[2] = system: Mitochondrial transmembrane potential (ΔΨm); experiment: Mitochondrial transmembrane potential (JC-1); assay type: in vivo, rats; details: indomethacin, diclofenac; pretreatment
Method: Mitochondrial transmembrane potential (ΔΨm) was measured as described (Maity, P.; et al. J. Biol. Chem. 284:3058-3068; 2009, Maity, P.; et al. J. Biol. Chem. 283:14391-14401; 2008, Maity, P.; et al. J. Pineal Res. 46:314-323; 2009). Mitochondria were isolated from gastric mucosal scraping using Mitoisolation kit (Biochain) as described above. Equal amount of mitochondria (25 μg) from each group (control, indomethacin, diclofenac and SEGA pre-treated indomethacin, diclofenac treated) was taken in 100 μl of JC-1 assay buffer (100 mM MOPS, pH 7.5, containing 550 mM KCl, 50 mM ATP, 50 mM MgCl2, 50 mM sodium succinate, 5 mM EGTA) and were incubated in dark with JC1 (300 nM) for 15 min at 25° C. The fluorescence of each sample was measured in a Hitachi F-7000 fluorescence spectrophtometer (excitation 490 nm, emission 530 nm for JC-1 monomer and emission 590 nm for JC-1 aggregates). ΔΨm was expressed as fluorescence ratio of 590 nm/530 nm.

[3] = system: rats; experiment: Toxicity (death) after injection in rats; assay type: in vivo; details: conclusion from in vivo experiments
[4] = system: diclofenac induced gastric mucosal injury; experiment: Diclofenac-induced gastric mucosal injury (ulcer index); assay type: in vivo, Sprague-Dwaley rats; details: diclofenac 75 mg kg^−1 oral
Method: Sprague-Dwaley rats (180-220 gm) were used for this study. Each group (control or experimental) of animals was maintained at 24±2° C. with 12 hrs lights and dark cycle. The animals were fasted for 24 hrs before the start of experiments. They were provided with water ad libitum to avoid food-induced increased acid secretion and its effect on gastric lesions. Gastric mucosal ulcer was developed by indomethacin as described (Pal, C; et al. Free Radic Biol Med, 49(2), 258-267; 2010, Biswas, K.; et al. J. Biol. Chem. 278:10993-11001; 2003, Bandyopadhyay, U.; et al. Life Sci. 71:2845-2865; 2002). Briefly, all the animals were divided into control, indomethacin and test compound group. Oral administration of indomethacin at a dose of 48 mg kg^−1 b.w was given to the fasted animals to induce gastric ulcer. In the drug-pretreated groups, the animals were given drug (50, 20, 10, 5, 3, 1 mg kg^−1 b.w.) intraperitoneally 30 min prior to ulcer induction with indomethacin. Control group received vehicle only but no indomethacin. After 4 hrs of indomethacin treatment, the animals were sacrificed under proper euthanasia and stomachs were collected. The mucosal injury was scored as ulcer index as follows: 0=no pathology; 1=one pinhead ulcer. The sum of the total scores divided by the number of animals gave the ulcer index. All the in vivo studies were done in accordance with the institute animal ethical committee guidelines. To see the effect of SEGA on diclofenac induced gastric mucosal injury, gastric mucosal damage was developed by the oral administration of diclofenac (75 mg kg^−1) and the rest of the experiment was carried out in a similar way as described for indomethacin. Diclofenac produced pinhead ulcer like indomethacin and the mucosal injury was scored as ulcer index as described above. Ethanol-induced gastric mucosal injury was developed with oral administration of 1 ml of 50% ethanol (Banerjee, R. K. (2002) Life Sci 71, 2845-2865) and after 4 hrs the animals were sacrificed and cold-restrain stress induced mucosal injury was developed by immobilizing the animals at 4° C. for 3.5 hrs (Banerjee, R. K. (2002) Life Sci 71, 2845-2865, (2003) J Biol Chem 278, 10993-11001).

## O=C(NCCc1c[nH]c2ccc(O)cc12)c1cc(O)c(O)c(O)c1 [Compound 3a, 3,4,5-trihydroxy-N-(2-(5-hydroxy-1H-indol-3-yl)ethyl)benzamide]
[1]
  toxicity as established by MTT reduction assay: non toxic molecule
[1]; SEGA 50 μM plus indomethacin 5 mM, 16 hrs
  mitochondrial dehydrogenase activity (MTT reduction): restores all the NSAIDs-induced mitochondrial dysfuctions
[2]
  mitochondrial membrane potential (fluorescence ratio 590 nm/530 nm, JC-1): restores all the NSAIDs-induced mitochondrial dysfuctions
[3]
  toxicity in rats: nontoxic molecule
[4]; dose 1 mg kg^−1 i.p.
  protection, diclofenac induced ulcer: 22%
[4]; dose 3 mg kg^−1 i.p.
  protection, diclofenac induced ulcer: 25%
[4]; dose 5 mg kg^−1 i.p.
  protection, diclofenac induced ulcer: 42%
[4]; dose 10 mg kg^−1 i.p.
  protection, diclofenac induced ulcer: 57%
[4]; dose 20 mg kg^−1 i.p.
  protection, diclofenac induced ulcer: 72%
[4]; dose 50 mg kg^−1 i.p.
  protection, diclofenac induced ulcer: 82%
